Test results as given in patent US12410153B2, “Compounds, compositions and methods” (Avalo Therapeutics, Inc., priority 2014, dated 2025).

How the values were obtained:
Sprague-Dawley rats [1] = experiment: Locomotor assay; assay type: in vivo, rat
Method: To confirm that the effect of Form II in the forced swim test was not due to a general increase in activity levels, rats were subjected to a locomotor assay following oral Form II administration. Adult male Sprague-Dawley rats (N=42) were randomly assigned across the treatment groups (vehicle or Compound (I) at 0.1, 0.3, 1, 3, 10, and 30 mg/kg; N=6/group). Locomotor activity was assessed during the light cycle in photocell-monitored cages (Hamilton Kinder, San Diego, CA). Each cage consisted of a standard plastic rat cage (24×45.5 cm) surrounded by a stainless steel frame. Infrared photocell beams were located across the long axis of the frame to measure the ambulatory distance traveled. A second set of beams was placed above the floor and was used to measure rearing activity. Photocell beam interruptions were recorded by a computer system. Filter tops were placed on top of the test enclosures during testing. Rats were administered either vehicle or test compound via oral gavage twice on Day 1 (approximately 24 h before the test and prior to dark cycle) and once on Day 2 (45 min prior to placing in the locomotor cages for a 60-min test). Locomotor activity was captured in 5-min bins.

[2] = target: T1, GluN1a/GluN2B human receptors (Homo sapiens, UniProt Q05586+Q13224); experiment: Radioligand binding, L(tk−) cell membranes expressing human GluN1a/GluN2B; set-up: expressed in transfected cells; host or cells: L(tk−) cells (mouse fibroblasts), dexamethasone-inducible expression; details: geometric mean
T1 sequence (Q13224 27-1484, other chains not shown): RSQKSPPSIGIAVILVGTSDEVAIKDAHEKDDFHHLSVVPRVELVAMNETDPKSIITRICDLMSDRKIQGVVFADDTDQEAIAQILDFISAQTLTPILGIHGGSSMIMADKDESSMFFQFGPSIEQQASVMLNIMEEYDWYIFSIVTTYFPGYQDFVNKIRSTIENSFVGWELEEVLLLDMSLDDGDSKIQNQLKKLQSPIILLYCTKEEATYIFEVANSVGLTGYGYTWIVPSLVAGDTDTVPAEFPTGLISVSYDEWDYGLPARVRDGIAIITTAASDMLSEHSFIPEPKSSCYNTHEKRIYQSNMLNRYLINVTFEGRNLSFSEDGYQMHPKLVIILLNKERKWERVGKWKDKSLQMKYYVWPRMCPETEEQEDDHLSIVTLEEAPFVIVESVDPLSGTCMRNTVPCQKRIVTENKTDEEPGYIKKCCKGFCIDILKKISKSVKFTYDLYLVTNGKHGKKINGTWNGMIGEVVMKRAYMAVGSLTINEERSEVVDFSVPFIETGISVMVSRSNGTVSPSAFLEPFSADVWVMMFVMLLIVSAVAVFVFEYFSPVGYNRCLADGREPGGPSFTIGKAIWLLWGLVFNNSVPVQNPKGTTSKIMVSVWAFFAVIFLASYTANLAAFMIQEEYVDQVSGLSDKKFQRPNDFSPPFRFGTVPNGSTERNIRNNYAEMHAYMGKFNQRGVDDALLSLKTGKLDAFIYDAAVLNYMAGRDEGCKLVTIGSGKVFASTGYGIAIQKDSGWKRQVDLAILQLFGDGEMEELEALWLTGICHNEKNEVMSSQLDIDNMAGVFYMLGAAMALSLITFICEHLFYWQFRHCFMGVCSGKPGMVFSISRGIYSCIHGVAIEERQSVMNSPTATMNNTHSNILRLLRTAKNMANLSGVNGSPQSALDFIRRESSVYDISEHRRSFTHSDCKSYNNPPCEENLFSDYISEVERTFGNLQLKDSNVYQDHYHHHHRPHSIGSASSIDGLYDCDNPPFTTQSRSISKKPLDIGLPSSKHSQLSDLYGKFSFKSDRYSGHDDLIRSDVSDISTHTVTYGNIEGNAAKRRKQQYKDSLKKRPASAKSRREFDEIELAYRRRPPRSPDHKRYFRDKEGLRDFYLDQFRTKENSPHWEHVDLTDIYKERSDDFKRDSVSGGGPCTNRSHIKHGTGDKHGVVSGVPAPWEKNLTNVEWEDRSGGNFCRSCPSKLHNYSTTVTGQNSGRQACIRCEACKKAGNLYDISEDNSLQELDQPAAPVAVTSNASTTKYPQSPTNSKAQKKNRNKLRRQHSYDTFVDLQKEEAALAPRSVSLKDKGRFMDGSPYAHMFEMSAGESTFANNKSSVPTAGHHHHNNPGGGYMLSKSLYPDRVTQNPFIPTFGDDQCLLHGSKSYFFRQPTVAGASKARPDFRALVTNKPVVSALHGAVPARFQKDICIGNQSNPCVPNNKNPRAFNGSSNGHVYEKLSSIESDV

hERG current = hERG current (Homo sapiens, UniProt Q12809); experiment: In vitro hERG assay; assay type: cell-based
Sequence of hERG current (Q12809 whole entry): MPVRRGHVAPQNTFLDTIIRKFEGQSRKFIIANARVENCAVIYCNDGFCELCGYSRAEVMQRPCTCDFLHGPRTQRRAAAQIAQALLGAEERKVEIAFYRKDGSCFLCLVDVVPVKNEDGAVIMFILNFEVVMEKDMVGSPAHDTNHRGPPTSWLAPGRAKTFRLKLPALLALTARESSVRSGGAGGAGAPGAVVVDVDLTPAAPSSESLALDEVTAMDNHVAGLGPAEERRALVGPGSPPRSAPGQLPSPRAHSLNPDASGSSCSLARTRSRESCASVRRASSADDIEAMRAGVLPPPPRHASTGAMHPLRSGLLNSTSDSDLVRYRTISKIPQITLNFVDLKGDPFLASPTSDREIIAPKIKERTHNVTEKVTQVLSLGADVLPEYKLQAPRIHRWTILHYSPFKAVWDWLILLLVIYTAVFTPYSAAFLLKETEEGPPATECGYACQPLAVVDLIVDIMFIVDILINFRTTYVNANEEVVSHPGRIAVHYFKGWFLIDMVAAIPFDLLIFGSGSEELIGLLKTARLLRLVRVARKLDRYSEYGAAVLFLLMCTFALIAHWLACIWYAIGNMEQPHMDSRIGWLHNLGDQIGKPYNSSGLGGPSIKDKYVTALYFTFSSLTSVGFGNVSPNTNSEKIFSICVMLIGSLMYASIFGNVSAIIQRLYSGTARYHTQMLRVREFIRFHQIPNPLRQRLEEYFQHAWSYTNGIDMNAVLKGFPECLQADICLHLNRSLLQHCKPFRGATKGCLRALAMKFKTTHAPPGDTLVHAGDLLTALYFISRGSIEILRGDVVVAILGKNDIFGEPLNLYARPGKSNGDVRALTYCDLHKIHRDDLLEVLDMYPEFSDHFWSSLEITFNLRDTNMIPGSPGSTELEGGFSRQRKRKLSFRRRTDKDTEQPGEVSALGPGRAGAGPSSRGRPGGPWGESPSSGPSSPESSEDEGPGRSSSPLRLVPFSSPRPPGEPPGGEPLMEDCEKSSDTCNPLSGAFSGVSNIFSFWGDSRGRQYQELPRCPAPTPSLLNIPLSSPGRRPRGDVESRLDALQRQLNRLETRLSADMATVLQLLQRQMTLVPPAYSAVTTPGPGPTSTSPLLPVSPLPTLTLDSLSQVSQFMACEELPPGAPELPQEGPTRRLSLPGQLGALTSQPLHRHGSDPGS
Method: (§1) The potential effects of Form II of Compound (I) on the functions of the nervous system, cardiovascular system, and respiratory system were evaluated in a battery of safety pharmacology studies that included an in vitro human ether-a-go-go-related gene (hERG) assay and in vivo studies in rats, dogs, and monkeys. CNS effects were tested in rats at single doses at 15, 75, and 225 mg/kg.
(§2) Effects of Form II on the cardiovascular system were tested in several studies. Potential QTc effects were tested in vitro and in vivo.

Sprague-Dawley rats [3] = experiment: Rat forced swim test 24 hours after administration; assay type: in vivo; details: 10 mg/kg, p.o., 24 hours before test, p<0.05
Method: This study aimed to evaluate the duration of the antidepressant-like effects of Form II of Compound (I) using the forced swim test in male, Sprague-Dawley rats. Clinically effective antidepressant compounds reduce immobility time and increase swimming in rodents subjected to this test. Rats received Compound (I) (10 mg/kg, p.o.) or ketamine (10 mg/kg, i.p.) and 24 hours later were subjected to testing. […] The data represent mean±SEM.

monkeys = experiment: Cardiovascular safety in conscious chair-restrained monkeys, single oral doses; assay type: in vivo, monkey
Method: as §1, §2
(§3) Hemodynamic effects were tested in dogs and monkeys. […] However, Form II did produce dose-independent increases in systolic (12-15 mm Hg), diastolic (7-10 mm Hg), and mean arterial pressures (9-12 mm Hg) in conscious, chair-restrained monkeys given single oral doses at 15, 75, or 150 mg/kg and monitored for 6 h post-dose.

[4] = as above; assay type: in vivo, monkey; details: monkey, plasma
Method: as §1, §2, §3

[5] = target: T1, GluN1a/GluN2B human receptors; experiment: Calcium influx (FLIPR) in GluN1a/GluN2B L(tk−) cells
[6] = target: T2, NMDA-GluN2B receptors, rhesus monkey frontal cortex homogenate (Macaca mulatta, UniProt F6T8S6); experiment: Radioligand binding, rhesus frontal cortex homogenate; details: geometric mean
T2 construct: frontal cortex homogenate (dog and rhesus monkey); from tissue; host or cells: rhesus monkey frontal cortex homogenate
T2 sequence (F6T8S6 29-1484): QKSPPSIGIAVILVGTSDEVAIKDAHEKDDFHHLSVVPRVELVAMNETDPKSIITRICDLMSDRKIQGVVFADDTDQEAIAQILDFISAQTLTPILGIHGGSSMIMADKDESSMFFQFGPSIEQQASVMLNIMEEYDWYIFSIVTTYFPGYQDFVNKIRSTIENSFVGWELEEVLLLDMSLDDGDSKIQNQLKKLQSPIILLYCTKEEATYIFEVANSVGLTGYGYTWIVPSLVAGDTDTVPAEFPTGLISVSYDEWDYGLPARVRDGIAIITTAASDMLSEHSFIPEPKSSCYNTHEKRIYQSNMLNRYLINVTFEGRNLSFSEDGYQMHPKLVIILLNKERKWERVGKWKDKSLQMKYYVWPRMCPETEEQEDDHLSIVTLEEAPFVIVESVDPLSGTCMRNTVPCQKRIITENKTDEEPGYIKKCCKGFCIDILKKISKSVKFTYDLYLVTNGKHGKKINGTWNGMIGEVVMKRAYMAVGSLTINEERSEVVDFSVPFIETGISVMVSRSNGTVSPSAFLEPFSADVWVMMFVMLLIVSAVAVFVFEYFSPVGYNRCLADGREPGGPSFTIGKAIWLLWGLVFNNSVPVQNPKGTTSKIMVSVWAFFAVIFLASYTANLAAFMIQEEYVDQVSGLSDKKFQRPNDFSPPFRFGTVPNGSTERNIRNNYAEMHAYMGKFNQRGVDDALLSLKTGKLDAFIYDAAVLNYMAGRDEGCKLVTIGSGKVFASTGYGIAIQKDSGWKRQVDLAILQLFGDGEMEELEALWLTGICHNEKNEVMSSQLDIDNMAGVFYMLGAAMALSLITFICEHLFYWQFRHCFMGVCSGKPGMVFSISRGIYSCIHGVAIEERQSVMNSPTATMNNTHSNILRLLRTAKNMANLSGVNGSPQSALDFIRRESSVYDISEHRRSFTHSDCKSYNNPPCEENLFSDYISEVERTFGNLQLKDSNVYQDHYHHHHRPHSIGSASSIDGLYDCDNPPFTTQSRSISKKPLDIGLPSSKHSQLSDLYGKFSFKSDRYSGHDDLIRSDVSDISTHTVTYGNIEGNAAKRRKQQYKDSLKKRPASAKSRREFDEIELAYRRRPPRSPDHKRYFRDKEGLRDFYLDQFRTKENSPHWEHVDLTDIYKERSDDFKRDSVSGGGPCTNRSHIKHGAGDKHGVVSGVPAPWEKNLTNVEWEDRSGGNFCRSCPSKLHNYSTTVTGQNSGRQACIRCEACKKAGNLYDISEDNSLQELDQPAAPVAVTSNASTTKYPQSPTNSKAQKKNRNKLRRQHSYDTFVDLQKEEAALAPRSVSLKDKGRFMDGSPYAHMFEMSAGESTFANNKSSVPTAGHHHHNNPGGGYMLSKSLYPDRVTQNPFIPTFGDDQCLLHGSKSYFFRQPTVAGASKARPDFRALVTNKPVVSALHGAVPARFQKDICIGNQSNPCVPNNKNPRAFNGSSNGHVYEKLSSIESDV
Method: Radioligand binding assays were performed at room temperature (or 37° C.) in 96-well microtiter plates with a final assay volume of […] in 20 mM HEPES buffer (pH 7.4) containing 150 mM NaCl. […] Nonspecific binding was assessed using N-(3-chlorobenzyl)-4-iodobenzimidamide (final concentration, 10 μM), and total binding was measured by addition of DMSO (final concentration, 2%). L(tk−) cell membranes expressing human GluN1a/GluN2B receptors (final concentration, 40 pM) and [^3H]-[(E)-N1-(2-methoxybenzyl)-cinnamamidine] (final concentration, 1 nM) were added to all wells of the microtiter plate. After 3 h (24 h or 48 h) of incubation at room temperature (or 37° C.), samples were filtered through Packard GF/B filters (presoaked in 0.05% polyethylenimine [PEI; Sigma P-3143]) and washed 10 times with 1 mL of cold 20 mM HEPES buffer per wash. After vacuum drying of the filter plates, 50 μL of Packard Microscint-20 was added and the bound radioactivity determined in a Packard TopCount.
Analogous binding experiments, to those described above for the cloned human receptor expressed in L(tk−) cells, were also performed using whole brain homogenate (rat), frontal cortex homogenate (dog and rhesus monkey), and temporal cortex homogenate (human).

[7] = 15, 75, or 150 mg/kg oral, dose-independent

Which results are given for `Cc1ccc(COC(=O)N2CC[C@H](CNc3ncccn3)[C@H](F)C2)cc1` [Form II, 4-methylbenzyl (3S, 4R)-3-fluoro-4-[(pyrimidin-2-ylamino)methyl] piperidine-1-carboxylate]?
locomotor effects (Sprague-Dawley rats [1]; 0.1 and 0.3 mg/kg dose groups): No locomotor effects; ED50 (Sprague-Dawley rats [1]; Rattus norvegicus, read-out: ED50 for increase in locomotor activity): ~2 mg/kg; distance traveled (Sprague-Dawley rats [1]; first 5 min of testing, 1, 3, 10, and 30 mg/kg vs vehicle): significantly increased; RO corresponding to locomotor ED50 (Sprague-Dawley rats [1]; rat, in vivo): ~75%; total distance traveled (Sprague-Dawley rats [1]; summed over 60-min test, 1, 3, 10, and 30 mg/kg vs vehicle): significantly increased; Ki ([2]; 4° C.): 1.8 nM; Ki ([2]; 37° C.): 31 nM; Ki ([2]; room temp.): 4.9 nM; IC50 (hERG current): ~13000 nM; immobility (Sprague-Dawley rats [3]): reduced immobility; swim time (Sprague-Dawley rats [3]): increased swim time significantly; heart rhythm and ECG parameters (monkeys; 15, 75, and 150 mg/kg oral, monitored 6 h): did not affect; increase in diastolic pressure (monkeys; [7]): 7-10 mm Hg; increase in mean arterial pressure (monkeys; [7]): 9-12 mm Hg; increase in systolic pressure (monkeys; [7]): 12-15 mm Hg; Cmax ([4]; 15 mg/kg oral): ~3 µM; Cmax ([4]; 75 mg/kg oral): ~9 µM; Cmax ([4]; 150 mg/kg oral): ~15 µM; IC50 [5]: 3.6 nM; Ki ([6]; 37° C.): 14 nM; Ki ([6]; room temp.): 3.1 nM
